Experimental data as given in US8802597B2, “Herbicidal pyrimidines” (E I du Pont de Nemours and Company, priority 2003, dated 2014).

Legend:
Type in all cases: in vivo
[1] = system: Surinam grass (Brachiaria decumbens); test: Test B pre/postemergence; conditions: for Surinam Grass plant response rating: Postemergence; for Plant response rating, Surinam Grass: Preemergence
Outline: (§1)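 Visual rating, 0 (no effect) to 100 (complete control) versus controls, taken 13–15 days after treatment in greenhouse. Compounds formulated in non-phytotoxic solvent plus surfactant; pre: sprayed after seeding; post: plants at 1- to 4-leaf stage, 2–18 cm.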

[2] = system: barnyardgrass (Echinochloa crus-galli); test: Test B pre/postemergence; conditions: for Barnyardgrass plant response rating: Postemergence; for Plant response rating, Barnyardgrass: Preemergence
Outline: as §1

[3] = system: cocklebur (Xanthium strumarium); test: Test B pre/postemergence; conditions: for Cocklebur plant response rating: Postemergence; for Plant response rating, Cocklebur: Preemergence
Outline: as §1

corn (Zea mays) = test: Test B pre/postemergence; conditions: for Corn plant response rating: Postemergence; for Plant response rating, Corn: Preemergence
Outline: as §1

[4] = system: crabgrass (Digitaria sanguinalis); test: Test B pre/postemergence; conditions: for Crabgrass plant response rating: Postemergence; for Plant response rating, Crabgrass: Preemergence
Outline: as §1

[5] = system: giant foxtail (Setaria faberii); test: Test B pre/postemergence; conditions: for Foxtail, Giant plant response rating: Postemergence; for Plant response rating, Foxtail, Giant: Preemergence
Outline: as §1

[6] = system: lambsquarters (Chenopodium album); test: Test B pre/postemergence; conditions: for Lambsquarters plant response rating: Postemergence; for Plant response rating, Lambsquarters: Preemergence
Outline: as §1

[7] = system: morningglory (Ipomoea coccinea); test: Test B pre/postemergence; conditions: for Morningglory plant response rating: Postemergence; for Plant response rating, Morningglory: Preemergence
Outline: as §1

[8] = system: pigweed (Amaranthus retroflexus); test: Test B pre/postemergence; conditions: for Pigweed plant response rating: Postemergence; for Plant response rating, Pigweed: Preemergence
Outline: as §1

[9] = system: velvetleaf (Abutilon theophrasti); test: Test B pre/postemergence; conditions: for Velvetleaf plant response rating: Postemergence; for Plant response rating, Velvetleaf: Preemergence
Outline: as §1

[10] = system: wheat (Triticum aestivum); test: Test B pre/postemergence; conditions: for Wheat plant response rating: Postemergence; for Plant response rating, Wheat: Preemergence
Outline: as §1

[11] = system: blackgrass (Alopecurus myosuroides); test: Test B postemergence; conditions: scale 0 to 100 (0 no effect, 100 complete control)
Outline: as §1

wild oat (Avena fatua) = test: Test B postemergence; conditions: scale 0 to 100 (0 no effect, 100 complete control)
Outline: as §1

[12] = system: barnyardgrass (Echinochloa crus-galli); test: Test B flooded paddy test; conditions: Flood, scale 0 to 100
Outline: (§2)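 Visual injury scoring (0 = no effect, 100 = complete control) versus controls made 13 to 15 days after treatment in the greenhouse. Test species were grown in flooded paddy to the 2-leaf stage: rice, barnyardgrass, umbrella sedge, duck salad.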

[13] = system: duck salad (Heteranthera limosa); test: Test B flooded paddy test; conditions: Flood, scale 0 to 100
Outline: as §2

rice (Oryza sativa) = test: Test B flooded paddy test; conditions: Flood, scale 0 to 100
Outline: as §2

[14] = system: umbrella sedge (Cyperus difformis); test: Test B flooded paddy test; conditions: Flood, scale 0 to 100
Outline: as §2

[15] = 62 g ai/ha, scale 0 to 100 (0 no effect, 100 complete control)
[16] = 125 g ai/ha, scale 0 to 100 (0 no effect, 100 complete control)
[17] = 62 g ai/ha, scale 0 to 100, 0 no effect, 100 complete control

## Nc1nc(C2CC2)nc(C(=O)O)c1Cl [Compound 135, 6-amino-5-chloro-2-cyclopropyl-4-pyrimidinecarboxylic acid]
[1]; [15]
  Surinam Grass plant response rating: 80
[1]; [16]
  Surinam Grass plant response rating: 80
  Plant response rating, Surinam Grass: 90
[1]; [17]
  Plant response rating, Surinam Grass: 80
[2]; [15]
  Barnyardgrass plant response rating: 70
[2]; [16]
  Barnyardgrass plant response rating: 90
  Plant response rating, Barnyardgrass: 90
[2]; [17]
  Plant response rating, Barnyardgrass: 70
[3]; [15]
  Cocklebur plant response rating: 100
[3]; [16]
  Cocklebur plant response rating: 100
  Plant response rating, Cocklebur: 100
[3]; [17]
  Plant response rating, Cocklebur: 100
Corn (Zea mays); [15]
  Corn plant response rating: 50
Corn (Zea mays); [16]
  Corn plant response rating: 80
  Plant response rating, Corn: 80
Corn (Zea mays); [17]
  Plant response rating, Corn: 50
[4]; [15]
  Crabgrass plant response rating: 60
[4]; [16]
  Crabgrass plant response rating: 70
  Plant response rating, Crabgrass: 90
[4]; [17]
  Plant response rating, Crabgrass: 80
[5]; [15]
  Foxtail, Giant plant response rating: 80
[5]; [16]
  Foxtail, Giant plant response rating: 80
  Plant response rating, Foxtail, Giant: 90
[5]; [17]
  Plant response rating, Foxtail, Giant: 60
[6]; [15]
  Lambsquarters plant response rating: 100
[6]; [16]
  Lambsquarters plant response rating: 100
  Plant response rating, Lambsquarters: 100
[6]; [17]
  Plant response rating, Lambsquarters: 100
[7]; [15]
  Morningglory plant response rating: 100
[7]; [16]
  Morningglory plant response rating: 100
  Plant response rating, Morningglory: 100
[7]; [17]
  Plant response rating, Morningglory: 100
[8]; [15]
  Pigweed plant response rating: 100
[8]; [16]
  Pigweed plant response rating: 100
  Plant response rating, Pigweed: 100
[8]; [17]
  Plant response rating, Pigweed: 100
[9]; [15]
  Velvetleaf plant response rating: 100
[9]; [16]
  Velvetleaf plant response rating: 100
  Plant response rating, Velvetleaf: 100
[9]; [17]
  Plant response rating, Velvetleaf: 90
[10]; [15]
  Wheat plant response rating: 40
[10]; [16]
  Wheat plant response rating: 60
  Plant response rating, Wheat: 90
[10]; [17]
  Plant response rating, Wheat: 70
[11]; 62 g ai/ha
  Blackgrass plant response rating: 60
[11]; 125 g ai/ha
  Blackgrass plant response rating: 70
Wild oat (Avena fatua); 62 g ai/ha
  Oat, Wild plant response rating: 60
Wild oat (Avena fatua); 125 g ai/ha
  Oat, Wild plant response rating: 60
[12]; 125 g ai/ha
  Plant response rating, Barnyardgrass: 30
[12]; 500 g ai/ha
  Plant response rating, Barnyardgrass: 80
[13]; 125 g ai/ha
  Plant response rating, Ducksalad: 60
[13]; 500 g ai/ha
  Plant response rating, Ducksalad: 90
Rice (Oryza sativa); 125 g ai/ha
  Plant response rating, Rice: 20
Rice (Oryza sativa); 500 g ai/ha
  Plant response rating, Rice: 60
[14]; 125 g ai/ha
  Plant response rating, Sedge, Umbrella: 70
[14]; 500 g ai/ha
  Plant response rating, Sedge, Umbrella: 80
